Residues, ends and D or L forms follow the SMILES beside them. *: point of attachment. Cbz = O=C(OCc1ccccc1)*; OtBu = CC(C)(C)O*
Molecular target: T1, human Nav1.7 (Homo sapiens, UniProt Q15858)
T1 construct: expressed in transfected cells; host or cells: HEK293 stably expressing human Nav1.7
Test: Whole-cell patch-clamp, HEK293 cells stably expressing human Nav1.7 with GFP or FGF13-GFP
Type: cell-based
Parameters: Nav1.7 repriming time course, Mean / Figure 4I, Mean versus Time (ms): unit not given here
Conditions: for use dependency, normalized INa amplitude, Mean: Fig 1I; for long-term inactivation, Mean: Fig 1J; for Nav1.7 repriming time course, Mean: Fig 1K; for Nav1.7 repriming time course, Mean / Time constant of repriming, Mean: PW164; for Time constant of repriming, Mean: Fig 1L
Experimental: Whole-cell patch clamp electrophysiology
HEK293-Nav1.7 cells, HEK293 stably expressing human Nav1.6 (HEK-Nav1.6), HEK293 stably expressing human Nav1.5 (HEK-Nav1.5), human hIPSC-derived sensory neurons (RealDRGTM from Anatomic Incorporated 1020F1-1M) and donor-derived DRG neurons were plated at low density on glass coverslips and processed for whole-cell patch clamp electrophysiology in voltage-clamp and/or current clamp mode. Whole-cell patch electrophysiological experiments were conducted following previously published studies (26). Current densities were obtained by dividing INa amplitude by membrane capacitance. Current –voltage relationships were generated by plotting current density as a function of the […]. Conductance (G Na) was calculated by the […]
where INa is the current amplitude at voltage Vm, and Erev is the Na+ reversal potential.
Activation curves were derived by plotting normalized GNa as a function of test potential and fitted using […]
Where GNa,Max is the maximum conductance, Va is the membrane potential of half-maximal activation, Em is the membrane voltage and k is the slope factor. For steady -state inactivation, normalized current amplitude (INa/INa,Max) at the test potential was plotted as a function of prepulse potential (Vm) and fitted using the […]
Where Vh is the potential of half-maximal inactivation, E m is the membrane voltage, and k is the slope factor.
Transient INa inactivation decay was estimated with the standard exponential equation. Inactivation time constant (tau, τ) was fitted with the following equation: […]
where I(t) is the amplitude of the current at time t and Iss is the steady-state current during a single voltage-step.
The goodness of fitting was determined by correlation coefficient (R), and the cutoff of R was set at 0.85. To observe effects on long-term inactivation (LTI), a four-step protocol was employed during which cells were subjected to four 0 mV, 20 ms depolarization pulses separated by −90 mV, 40 ms recovery intervals. To control for various cell sizes, the current densities were calculated by dividing INa peak current amplitude/membrane capacitance (Cm). To represent the fraction of channels entering into LTI, the peak INa observed during depolarization cycles 2-4 was normalized to the peak INa observed during depolarization cycle 1 (INa/INa,Cycle 1) and plotted as a function of the depolarization cycle.
The cumulative (frequency-dependent) use-dependency was determined by applying 20 pulses with a depolarization to −10 mV (50 ms duration) and 50 ms recovery intervals with a train of 20 pulses at 10 Hz from a holding potential at -70 mV. The current pulses were normalized to the first reco rded pulse and the currents at the 2nd to 20th pulses were compared. The same train was used to record use-dependency at various frequencies […]
The rate of recovery from inactivation was recorded at -80 mV with a standard repriming voltage protocol.
The cells were prepulsed to -20 mV for 20 ms to inactivate all currents, then driven back to the recovery potential (Vrec) for increasing recovery durations before the test pulse to 0 mV. The maximum pulse rate was 0.5 Hz. The […]
follows previous publications (16). The time constants were estimated from single exponential decay to time courses measured at recovery potentials ranging from -140 to -60 mV with the protocol as mentioned above.
Electrophysiological Recordings
HEK293 cells: Electrophysiological recordings in HEK293 stably expressing Nav1.7 (HEK-Nav1.7), Nav1.5 (HEK-Nav1.5) or Nav1.6 (HEK-Nav1.6) were performed at room temperature using a MultiClamp 700B or an Axopatch 200B amplifier (Molecular Devices) after incubating coverslips for 60 minutes either with 0.1% DMSO or 50 μM PW164 or ZL192 in the extracellular solution. The composition of recording solutions consisted of the […]
following salts: extracellular (mM): 140 NaCl, 3 KCl, 1 MgCl2, 1 CaCl2, 10 HEPES, 10 glucose, pH 7.3; […]
intracellular (mM): 130 CH3O3 SCs, 1 EGTA, 10 NaCl, 10 HEPES, pH 7.3. […]

T1 sequence (Q92913 1-192 partner limits assumed): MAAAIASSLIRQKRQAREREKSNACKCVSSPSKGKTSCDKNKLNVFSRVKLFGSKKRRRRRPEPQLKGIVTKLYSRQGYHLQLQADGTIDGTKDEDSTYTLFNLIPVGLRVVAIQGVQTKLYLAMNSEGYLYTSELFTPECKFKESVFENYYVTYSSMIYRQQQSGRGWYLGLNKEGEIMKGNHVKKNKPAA
T1 sequence (Q15858 1-1977 isoform Q15858-3): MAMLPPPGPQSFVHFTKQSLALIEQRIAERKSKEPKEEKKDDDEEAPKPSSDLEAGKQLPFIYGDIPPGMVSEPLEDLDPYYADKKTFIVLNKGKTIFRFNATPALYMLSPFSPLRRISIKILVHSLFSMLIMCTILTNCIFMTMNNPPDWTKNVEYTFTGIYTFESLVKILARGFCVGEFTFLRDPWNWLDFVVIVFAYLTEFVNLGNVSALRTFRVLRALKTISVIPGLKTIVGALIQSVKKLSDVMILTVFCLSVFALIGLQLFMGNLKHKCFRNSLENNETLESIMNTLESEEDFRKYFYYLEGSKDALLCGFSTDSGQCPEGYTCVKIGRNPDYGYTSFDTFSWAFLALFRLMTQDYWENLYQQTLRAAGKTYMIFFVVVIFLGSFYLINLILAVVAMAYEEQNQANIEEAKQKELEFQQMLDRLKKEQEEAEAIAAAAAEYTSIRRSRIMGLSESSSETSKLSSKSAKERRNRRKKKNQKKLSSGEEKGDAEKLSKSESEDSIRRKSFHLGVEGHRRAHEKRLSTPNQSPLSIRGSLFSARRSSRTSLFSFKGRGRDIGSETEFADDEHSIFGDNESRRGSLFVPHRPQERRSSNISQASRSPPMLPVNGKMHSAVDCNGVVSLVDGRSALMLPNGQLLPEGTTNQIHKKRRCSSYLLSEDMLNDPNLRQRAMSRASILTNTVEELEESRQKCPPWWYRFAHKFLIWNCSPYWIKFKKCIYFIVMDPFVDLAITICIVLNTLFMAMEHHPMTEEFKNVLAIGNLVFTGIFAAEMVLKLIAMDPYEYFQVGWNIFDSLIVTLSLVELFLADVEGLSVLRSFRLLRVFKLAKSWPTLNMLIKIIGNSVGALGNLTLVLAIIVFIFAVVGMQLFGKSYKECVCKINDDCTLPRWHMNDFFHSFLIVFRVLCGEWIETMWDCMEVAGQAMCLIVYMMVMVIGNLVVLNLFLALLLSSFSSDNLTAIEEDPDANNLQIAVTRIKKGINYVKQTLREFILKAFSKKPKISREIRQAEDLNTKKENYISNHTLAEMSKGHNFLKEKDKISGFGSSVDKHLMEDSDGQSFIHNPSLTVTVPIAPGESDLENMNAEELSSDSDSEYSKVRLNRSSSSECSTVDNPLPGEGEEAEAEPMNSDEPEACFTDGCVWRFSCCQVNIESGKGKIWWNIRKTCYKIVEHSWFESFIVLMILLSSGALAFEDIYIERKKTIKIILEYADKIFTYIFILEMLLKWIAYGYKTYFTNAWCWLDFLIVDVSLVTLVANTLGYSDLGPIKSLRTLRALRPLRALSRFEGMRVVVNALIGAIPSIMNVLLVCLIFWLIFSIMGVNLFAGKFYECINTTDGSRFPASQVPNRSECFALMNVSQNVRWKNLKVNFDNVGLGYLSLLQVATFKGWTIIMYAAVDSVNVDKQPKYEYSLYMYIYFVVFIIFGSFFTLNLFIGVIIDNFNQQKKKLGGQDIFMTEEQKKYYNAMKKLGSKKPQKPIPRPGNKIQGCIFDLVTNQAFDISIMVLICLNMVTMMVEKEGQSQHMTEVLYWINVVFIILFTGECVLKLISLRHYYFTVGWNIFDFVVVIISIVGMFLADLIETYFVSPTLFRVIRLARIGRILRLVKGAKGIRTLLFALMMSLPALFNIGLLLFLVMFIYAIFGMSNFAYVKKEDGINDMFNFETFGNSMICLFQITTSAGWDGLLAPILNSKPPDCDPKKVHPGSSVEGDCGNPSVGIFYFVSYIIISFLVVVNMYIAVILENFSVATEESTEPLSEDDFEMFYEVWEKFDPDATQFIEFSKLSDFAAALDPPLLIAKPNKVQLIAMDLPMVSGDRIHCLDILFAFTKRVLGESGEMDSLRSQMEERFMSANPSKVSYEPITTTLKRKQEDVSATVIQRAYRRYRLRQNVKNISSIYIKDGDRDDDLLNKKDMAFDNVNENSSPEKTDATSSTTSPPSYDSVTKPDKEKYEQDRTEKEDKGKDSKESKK

COC(=O)[C@@H](NC(=O)[C@H](CCC(=O)OC(C)(C)C)NC(=O)[C@H](CC(C)C)NC(=O)[C@@H]1CCCN1C(=O)OCc1ccccc1)C(C)C [PW164] (Cbz-PLE(OtBu)V-OMe)
use dependency, normalized INa amplitude, Mean (FGF13-GFP + PW164, Pulse 1): 1 | use dependency, normalized INa amplitude, Mean (FGF13-GFP + PW164, Pulse 3): 0.7166 | use dependency, normalized INa amplitude, Mean (FGF13-GFP + PW164, Pulse 6): 0.6629 | use dependency, normalized INa amplitude, Mean (FGF13-GFP + PW164, Pulse 10): 0.6585 | use dependency, normalized INa amplitude, Mean (FGF13-GFP + PW164, Pulse 15): 0.6477 | use dependency, normalized INa amplitude, Mean (FGF13-GFP + PW164, Pulse 20): 0.6421 | use dependency, normalized INa amplitude, Mean (GFP + PW164, Pulse 1): 1 | use dependency, normalized INa amplitude, Mean (GFP + PW164, Pulse 3): 0.9017 | use dependency, normalized INa amplitude, Mean (GFP + PW164, Pulse 6): 0.9079 | use dependency, normalized INa amplitude, Mean (GFP + PW164, Pulse 10): 0.9071 | use dependency, normalized INa amplitude, Mean (GFP + PW164, Pulse 15): 0.9039 | use dependency, normalized INa amplitude, Mean (GFP + PW164, Pulse 20): 0.8633 | long-term inactivation, Mean (FGF13-GFP + PW164, Pulse 1): 100 | long-term inactivation, Mean (FGF13-GFP + PW164, Pulse 2): 69.7175 | long-term inactivation, Mean (FGF13-GFP + PW164, Pulse 3): 60.3266 | long-term inactivation, Mean (FGF13-GFP + PW164, Pulse 4): 59.3421 | long-term inactivation, Mean (GFP + PW164, Pulse 1): 100 | long-term inactivation, Mean (GFP + PW164, Pulse 2): 67.9412 | long-term inactivation, Mean (GFP + PW164, Pulse 3): 62.3462 | long-term inactivation, Mean (GFP + PW164, Pulse 4): 60.9288 | Nav1.7 repriming time course, Mean (Nav1.7 + FGF13-GFP, Time (ms) 2): -1.745 | Nav1.7 repriming time course, Mean (Nav1.7 + FGF13-GFP, Time (ms) 5): -3.217 | Nav1.7 repriming time course, Mean (Nav1.7 + FGF13-GFP, Time (ms) 9): -6.791 | Nav1.7 repriming time course, Mean (Nav1.7 + FGF13-GFP, Time (ms) 17): -10.2331 | Nav1.7 repriming time course, Mean (Nav1.7 + FGF13-GFP, Time (ms) 33): -13.6908 | Nav1.7 repriming time course, Mean (Nav1.7 + FGF13-GFP, Time (ms) 65): -18.7676 | Nav1.7 repriming time course, Mean (Nav1.7 + FGF13-GFP, Time (ms) 129): -22.4288 | Nav1.7 repriming time course, Mean (Nav1.7 + FGF13-GFP, Time (ms) 257): -26.5719 | Nav1.7 repriming time course, Mean (Nav1.7 + FGF13-GFP, Time (ms) 513): -28.3171 | Nav1.7 repriming time course, Mean (Nav1.7 + FGF13-GFP, Time (ms) 1025): -29.4614 | Nav1.7 repriming time course, Mean (Nav1.7 + FGF13-GFP, Time (ms) 2000): -30.5045 | Nav1.7 repriming time course, Mean (Nav1.7 + GFP, Time (ms) 2): -0.8155 | Nav1.7 repriming time course, Mean (Nav1.7 + GFP, Time (ms) 5): -1.631 | Nav1.7 repriming time course, Mean (Nav1.7 + GFP, Time (ms) 9): -4.0928 | Nav1.7 repriming time course, Mean (Nav1.7 + GFP, Time (ms) 17): -9.754 | Nav1.7 repriming time course, Mean (Nav1.7 + GFP, Time (ms) 33): -14.6809 | Nav1.7 repriming time course, Mean (Nav1.7 + GFP, Time (ms) 65): -21.498 | Nav1.7 repriming time course, Mean (Nav1.7 + GFP, Time (ms) 129): -26.6853 | Nav1.7 repriming time course, Mean (Nav1.7 + GFP, Time (ms) 257): -32.6576 | Nav1.7 repriming time course, Mean (Nav1.7 + GFP, Time (ms) 513): -33.7798 | Nav1.7 repriming time course, Mean (Nav1.7 + GFP, Time (ms) 1025): -35.5926 | Nav1.7 repriming time course, Mean (Nav1.7 + GFP, Time (ms) 2000): -36.9364 | Time constant of repriming, Mean (Nav1.7 + FGF13-GFP, recovery potential -60): 51.44 ms | Time constant of repriming, Mean (Nav1.7 + FGF13-GFP, recovery potential -70): 60.77 ms | Time constant of repriming, Mean (Nav1.7 + FGF13-GFP, recovery potential -80): 68.88 ms | Time constant of repriming, Mean (Nav1.7 + FGF13-GFP, recovery potential -90): 64.58 ms

— paper PMC12259270, “Sensory neuron–expressed FGF13 controls nociceptive signaling in diabetic neuropathy models” (The Journal of Clinical Investigation, 2025)
